Assays:
[1] = test system: mice; assay: Noise-induced tinnitus model, SBAD Go/No-Go (Example 12); format: in vivo
Excerpt: The SBAD method with Go/No-Go paradigm was used for behavioral test in mice. For “Go” trial animals were trained to move from one compartment to another upon presentation of a sound. For “No-Go” trial animals were trained to stay in the compartment. Otherwise they received a shock. “Go” paradigm was used to monitor motor, motivation, and memory functions while “No-Go” was used to detect tinnitus-like behavior. One ear was exposed to a 120 dB noise (4-25 kHz) for two hours for this noise-induced tinnitus model. DPOAE and ABR were measured to monitor possible hearing loss in each ear 2 weeks after noise exposure. SBAD measurements were made 2, 4, and 8 weeks after noise exposure, and also after TET (0, 30, 60, 90 mg/kg) injection.

[2] = test system: CBA/CaJ mice; assay: Accelerating rotarod test, motor coordination after single injection (Example 3); format: in vivo; conditions: 1 and 3 h after injection
Protocol: FIG. 3 illustrates the effects of TET on mouse rotarod performance test. CBA/CaJ mice were tested before TET treatment (baseline) and one and three hours (1 h, 3 h) after TET treatment (i.p.). The latency to fall were shown as mean+/−S.E.M.
TET effects on motor coordination were evaluated on the accelerating rotarod test. the rotating speed was increased with an acceleration rate of 10 rpm/min. The length of time that each animal was able to stay on the rod was recorded as the latency to fall. TET was dissolved in 0.1 N HCl at a concentration of 50 mg/ml, and the pH was adjusted to 6.8-7.0 before diluted in saline. Mice were injected intraperitoneally (i.p.) with saline (baseline) or different TET dosages. Rotarod performance was evaluated at 1 and 3 h after injection (FIG. 3). […] No significant gender effect was detected at either time point (p>0.1).

[3] = rats, cited from earlier work
[4] = higher dosages; abdominal distension, diarrhea, dry eye, itching, hyperpigmentation, mildly elevated liver enzymes; resolve after discontinuance; cited from earlier work
[5] = test system: CBA/CaJ mice; assay: Accelerating rotarod, chronic TET use (Example 1); format: in vivo; conditions: 120 mg/kg i.p. for five days, two-month old mice, two-way ANOVA p>0.05
Protocol: CBA/CaJ mice were purchased from The Jackson Laboratory. One to five mice were housed per cage with food and water available in a noise-controlled environment on a 12-hr light/dark cycle with light onset at 6:00 a.m. TET was obtained from Sigma Chemical Co. (St. Louis, Mo.). The drug solution was injected (i.p.) for the treated groups. Control mice were given saline injection only. The amount of water/food intake was monitored daily and body weight was monitored weekly. Drug neurotoxic effects on sensory motor coordination were assessed on two-month old CBA/CaJ mice using the accelerating rotarod method. Mice were trained on the task for 5 days in order to achieve stable performance before either being treated by intraperitoneal (i.p.) injections with TET at 120 mg/kg body weight (n=5) or saline (n=6).

[6] = test system: mice; assay: Salicylate-induced tinnitus model, SBAD Go/No-Go (Example 12); format: in vivo; conditions: before or after drug injections, at these dosages
Excerpt: The SBAD method with Go/No-Go paradigm was used for behavioral test in mice. For “Go” trial animals were trained to move from one compartment to another upon presentation of a sound. For “No-Go” trial animals were trained to stay in the compartment. Otherwise they received a shock. “Go” paradigm was used to monitor motor, motivation, and memory functions while “No-Go” was used to detect tinnitus-like behavior. A baseline was established for each mouse over three consecutive days. The same SBAD method was repeated one hour after intraperitoneal injections of sodium salicylate (400 mg/kg), and two hours after TET injections.

[7] = test system: C57BL/6J mice; assay: Rodent avoidance (shuttle box) test, memory (Example 5); format: in vivo
Protocol: FIG. 5 illustrates the effects of TET on mouse avoidance test. C57BL/6J mice were trained to move in the shuttle box when a sound was present. After 10 days of training, the latency of their avoidance test was recored and compared between the control (0) and drug-treated groups. Data are shown as means+/−S.E.M.
TET effects on memory were evaluated in mice with a rodent avoidance system, which consisted of two compartments of equal size (12.5 cm×20 cm×20 cm) that were connected by a door. Infrared LEDs were used to monitor rodent movement in each compartment. Sound cues were delivered via piezo tweeters in the ceiling of the compartments. Animals were trained to move from one compartment to the other upon presentation of the sound. […] The trials and responses were collected. Behavioral responses of mice with or without TET injection were measured after injection (FIG. 5). […] Again, one time administration of TET at 120 mg/kg had no significant toxic effects on memory in mice.

[8] = test system: CBA/CaJ mice; assay: Prepulse inhibition (PPI), sensory gating (Example 4); format: in vivo
Protocol: TET effects on sensory gating were evaluated using a prepulse inhibition (PPI) procedure. Mice were placed in a plastic restrainer situated on a plate with a pressure sensor. Any animal motion was detected by the sensor which measured its amplitude. TET at various dosages was injected (i. p.) 1 h before the test. For this study, CBA/CaJ mice were divided into four groups: control with saline injection only (n=6; 2 males), TET at 30 mg/kg (n=6; 3 males), 60 mg/kg (n=10; 5 males) and 120 mg/kg (n=6; 2 males). For all groups, the ratio between the PPI and startle amplitude was measured (FIG. 4). […] Thus, TET at 120 mg/kg has no toxic effects on sensory gating in the CBA/CaJ mouse.

[9] = test system: CBA/CaJ mice; assay: Early noise-induced accelerated ARHL model, ABR thresholds (Example 2); format: in vivo; conditions: three months after noise exposure (4-25 kHz, 110 dB SPL, 30 min); TET three days before and two days after exposure
Protocol: Currently, no FDA-approved medications against ARHL are available. Two-month old CBA/CaJ mice were exposed to octave band (4-25 kHz) noise at 110 dB SPL for 30 minutes. This is a well-established noise model for our drug screenings since the noise exposure leads to dramatic acute and permanent hearing threshold shifts 24 hours and two weeks post-exposure respectively. In addition, apparently accelerated age-related increase in the auditory brainstem response (ABR) thresholds were observed three months after the noise exposure in the control group (n=6), up to approximately 50 dB at 40 kHz. Mice treated with TET (n=5) three days before and two days after the noise exposure had only about an increase of 10 dB at 40 kHz three months after exposure (FIG. 2). […] Thus, TET treatment at a young age could prevent accelerated age-related hearing loss due to early noise exposure.

[10] = test system: CBA/CaJ mice; assay: NIHL, white noise 110 dB SPL 30 min, ABR TTS, repeated TET (Example 6); format: in vivo; conditions: 120 mg/kg two days before and three days after noise
Excerpt: The average TTS across all test frequencies was 69.7 dB for the control group, 62.9 dB for the TET-treated group (about 6.8 dB of protection).

[11] = single oral administration 50 mg/kg

COc1ccc2cc1Oc1ccc(cc1)C[C@H]1c3cc(c(OC)cc3CCN1C)Oc1c(OC)c(OC)cc3c1[C@H](C2)N(C)CC3 [TET, tetrandrine]
"Go" trials (motor, motivation, memory functions) [1]: No significant changes
rotarod performance (latency to fall) vs baseline ([2]; 60 mg/kg i.p.): no significant side effects
rotarod performance (latency to fall) vs baseline ([2]; 120 mg/kg i.p.): no significant side effects
drug elimination from plasma ([3]; between 12.5 to 25 mg/kg): consistent with linear kinetics
area under the curve (AUC) [3, 11]: 6.2792 ± 2.4115 µg·h/mL
half time (T½) [3, 11]: 20.6 ± 3.7 h
drug concentration-curve model [3]: fits well with a two-compartment open model
side effects in patients [4]: limited side effects
rotarod latency to fall vs control [5]: not significantly different
"Go" testing (motor, motivation, memory functions) [6]: No significant changes
avoidance test latency to cross vs control ([7]; 60 mg/kg): No significant difference
avoidance test latency to cross vs control ([7]; 120 mg/kg): No significant difference
avoidance test latency to cross vs control ([7]; 180 mg/kg, one-tailed t-test p<0.05): significant increase
ratio between PPI and startle amplitude, pre- vs post-treatment ([8]; 30 mg/kg i.p. 1 h before test): No significant differences
ratio between PPI and startle amplitude, pre- vs post-treatment ([8]; 60 mg/kg i.p. 1 h before test): No significant differences
ratio between PPI and startle amplitude, pre- vs post-treatment ([8]; 120 mg/kg i.p. 1 h before test): No significant differences
increase of ABR threshold at 40 kHz [9]: ~10 dB
protection (TTS difference to control) [10]: about 6.8 dB
average TTS across all test frequencies ([10]; 24 hours after exposure, four month-old mice (control 69.7 dB)): 62.9 dB

From patent US10434097B1, “Methods and compositions for treating hearing disorders” (GATEWAY BIOTECHNOLOGY, INC., priority 2015, dated 2019)
